Assay results from patent US20240279232A1, “USE OF SUBSTITUTED 5-(4-METHYL-6-PHENYL-4H-BENZO[F]IMIDAZO[1,5-A][1,4] DIAZEPIN-3-YL)-1,2,4-O[…] THE TREATMENT OF INFLAMMATORY CONDITIONS” (priority 2021, published 2024).
Read-outs that look alike come from different tables or passages of the source.

Columns and labels:
[1] = tested on: BZR (benzodiazepine site of GABAAR); assay: GABAAR/BZR binding, rat brain homogenate with 3H-flunitrazepam; conditions: for BZR %: Percent inhibition at 10,000 nM
Summary of the method: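 Primary screen at 10,000 nM; where displacement exceeded 50%, Ki came from nonlinear regression of concentration–response data (n=6). Radioligand was 3H-flunitrazepam at roughly Kd on rat brain homogenate, usually 90 min, room temperature, dark, with 10 μM reference compound for nonspecific binding, then filtration and scintillation counting.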

HEK293 = assay: Viability assay (CellTiter-Glo), HEK293; assay type: cell-based, human; conditions: for Cell viability (%) HEK293 120 μM: CellTiter-Glo; for toxicity at 120 μM (in words): HEK293, 120 μM
RAW macrophages = assay: NO production (Griess assay), LPS/IFNγ-activated RAW264.7 macrophages; assay type: cell-based, mouse; conditions: Mus musculus, Macrophage, 24 h
DOR (δ opioid receptor) = target: T1, DOR (δ opioid receptor) (Homo sapiens, UniProt P41143); assay: DOR radioligand binding ([3H]-DADLE, HEK293 cell homogenates); conditions: for inhibition at 10 µM: Percent inhibition at 10,000 nM, [3H]-DADLE
T1 construct: expressed in transfected cells; host or cells: HEK293

KOR (κ opioid receptor) = target: T2, KOR (κ opioid receptor) (Homo sapiens, UniProt P41145); assay: KOR radioligand binding ([3H]-U69593, HEK293 cell homogenates); conditions: for inhibition at 10 µM: Percent inhibition at 10,000 nM
T2 construct: expressed in transfected cells; host or cells: HEK293 (stably transfected)

MOR (μ opioid receptor) = target: T3, MOR (μ opioid receptor) (Homo sapiens, UniProt P35372); assay: MOR radioligand binding ([3H]-DAMGO, HEK293 cell homogenates); conditions: for inhibition at 10 µM: Percent inhibition at 10,000 nM, [3H]-DAMGO
T3 construct: expressed in transfected cells; host or cells: HEK293

[2] = rat brain homogenate, 3H-flunitrazepam
[3] = concentration-dependent, [3H]-U69593, read-out: KOR (Ki)

| SMILES | BZR % [1, 2] | Ki [1, 2] | Cell viability (%) HEK293 120 μM (HEK293) | inhibition at 10 µM (RAW macrophages) | inhibition at 10 µM (DOR (δ opioid receptor)) | inhibition at 10 µM (KOR (κ opioid receptor); [3H]-U69593) | Ki (KOR (κ opioid receptor); [3]) | inhibition at 10 µM (MOR (μ opioid receptor)) | inhibition at 50 µM (RAW macrophages) | Ki (KOR (κ opioid receptor)) | toxicity at 120 μM (in words) (HEK293) | Percent Competition BZP Rat Brain Site ([1]; PDSP primary screening) | IC50 ([1]; rat brain homogenate, 3H-flunitrazepam, read-out: affinity for the benzodiazepine site of GABAARs (IC50)) | Percent Competition DOR (DOR (δ opioid receptor); PDSP primary screening) | IC50 (KOR (κ opioid receptor)) | Percent Competition KOR (KOR (κ opioid receptor); PDSP primary screening) | Percent Competition MOR (MOR (μ opioid receptor); PDSP primary screening) |
| --- | --- | --- | --- | --- | --- | --- | --- | --- | --- | --- | --- | --- | --- | --- | --- | --- | --- |
| CCOC(=O)c1ncn2c1[C@@H](C)N=C(c1ccccn1)c1cc(Br)ccc1-2 [GL-II-06] | 81% | 556 nM | 83 ± 13% | 4 ± 2% | 9% | 79% | 401 nM | 11% |  |  |  |  |  |  |  |  |  |
| C[C@H]1N=C(c2ccccn2)c2cc(Br)ccc2-n2cnc(C(=O)O)c21 [GL-II-51] | 84% | 181 nM | 91 ± 4% | 0% | 0% | 11% |  | 0% |  |  |  |  |  |  |  |  |  |
| C[C@H]1N=C(c2ccccc2F)c2cc(Br)ccc2-n2cnc(-c3cnco3)c21 [GL-III-36] | 86% | 319 nM | 80 ± 9% | 0% | 12% | 88% |  | 0% | 58 ± 9% | 246 nM |  |  |  |  |  |  |  |
| CCOC(=O)c1ncn2c1[C@@H](C)N=C(c1ccccc1F)c1cc(C3CC3)ccc1-2 [GL-III-42] | 62% | 726 nM | 62 ± 11% | 0% | 13% | 86% |  | 0% |  | 174 nM |  |  |  |  |  |  |  |
| C[C@H]1N=C(c2ccccc2F)c2cc(Cl)ccc2-n2cnc(C(=O)O)c21 [GL-III-54] | 100% | 42 nM | 96 ± 12% | 6 ± 4% | 0% | 22% |  | 0% |  |  |  |  |  |  |  |  |  |
| Cc1noc(-c2ncn3c2[C@@H](C)N=C(c2ccccc2F)c2cc(Br)ccc2-3)n1 [GL-III-60, (R)-5-(8-Bromo-6-(2-fluorophenyl)-4-methyl-4H-benzo[f]imidazo[1,5-a][1,4]diazepin-3-yl)-3-methyl-1,2,4-oxadiazole] | 100% | 784 nM | 64 ± 6% | 0% | 18% | 87% |  | 26% | 39 ± 8% | 232 nM |  |  |  |  |  |  |  |
| Cc1noc(-c2ncn3c2[C@@H](C)N=C(c2ccccc2F)c2cc(C4CC4)ccc2-3)n1 [GL-III-63, (R)-5-(8-Cyclopropyl-6-(2-fluorophenyl)-4-methyl-4H-benzo[f]imidazo[1,5-a][1,4]diazepin-3-yl)-3-methyl-1,2,4-oxadiazole] | 28% |  | 18 ± 4% | 13 ± 4% | 31% | 78% |  | 8% | 62 ± 12% | 678 nM | toxic |  |  |  |  |  |  |
| C#Cc1ccc2c(c1)C(c1ccccc1F)=N[C@H](C)c1c(C(=O)NC(C)C)ncn1-2 [GL-III-66] | 88% | 271 nM | 46 ± 4% | 6 ± 4% | 0% | 63% | 233 nM | 0% |  |  |  |  |  |  |  |  |  |
| CCNC(=O)c1ncn2c1[C@@H](C)N=C(c1ccccc1F)c1cc(C3CC3)ccc1-2 [GL-III-68] | 100% | 452 nM | 56 ± 11% | 5 ± 1% | 10% | 88% |  | 0% |  |  |  |  |  |  |  |  |  |
| C[C@H]1N=C(c2ccccc2F)c2cc(Br)ccc2-n2cnc(C(=O)N(C)C)c21 [GL-III-69] | 100% | 446 nM | 73 ± 10% | 0% | 10% | 75% | 511 nM | 0% |  |  |  |  |  |  |  |  |  |
| C[C@H]1N=C(c2ccccc2F)c2cc(C3CC3)ccc2-n2cnc(C(=O)N(C)C)c21 [GL-III-70] | 100% | 3400 nM | 86 ± 12% | 2 ± 2% | 50% | 68% | 800 nM | 0% |  |  |  |  |  |  |  |  |  |
| C#Cc1ccc2c(c1)C(c1ccccc1F)=N[C@H](C)c1c(-c3cnco3)ncn1-2 [GL-III-73] | 65% | 602 nM | 86 ± 6% | 1 ± 6% | 4% | 74% |  | 12% |  | 449 nM |  |  |  |  |  |  |  |
| C[C@@H]1N=C(c2ccccc2F)c2cc(Br)ccc2-n2cnc(-c3cnco3)c21 [GL-III-76] | 100% | 120 nM | 59 ± 4% | 0% | 0% | 83% |  | 3% |  | 221 nM |  |  |  |  |  |  |  |
| C#Cc1ccc2c(c1)C(c1ccccc1F)=N[C@@H](C)c1c(-c3cnco3)ncn1-2 [GL-III-78] | 101% | 26 nM | 56 ± 8% | 0% | 9% | 74% |  | 10% |  | 451 nM |  |  |  |  |  |  |  |
| CCc1noc(-c2ncn3c2[C@@H](C)N=C(c2ccccc2F)c2cc(C4CC4)ccc2-3)n1 [GL-IV-03, (R)-5-(8-Cyclopropyl-6-(2-fluorophenyl)-4-methyl-4H-benzo[f]imidazo[1,5-a][1,4]diazepin-3-yl)-3-ethyl-1,2,4-oxadiazole] | 65% |  | 47 ± 5% | 75% | 67% | 91% |  | 25% |  | 232 nM | some cytotoxicity |  |  |  |  |  |  |
| C#Cc1ccc2c(c1)C(c1ccccc1F)=N[C@H](C)c1c(C(=O)NC)ncn1-2 [MP-III-022] | 95% | 83 nM | 75 ± 13% | 9 ± 5% | 22% | 80% | 381 nM | 3% | 51 ± 7% |  |  |  |  |  |  |  |  |
| C#Cc1ccc2c(c1)C(c1ccccc1F)=N[C@H](C)c1c(-c3nc(C)no3)ncn1-2 [MP-IV-004] | 63% | 1080 nM | 40 ± 8% | 0% | 10% | 86% |  | 7% | 51 ± 7% | 444 nM |  |  |  |  |  |  |  |
| C#Cc1ccc2c(c1)C(c1ccccc1F)=N[C@H](C)c1c(-c3nc(C(C)C)no3)ncn1-2 [MP-IV-010, (R)-5-(8-ethynyl-6-(2-fluorophenyl)-4-methyl-4H-benzo[f]imidazo[1,5-a][1,4]diazepin-3-yl)-3-isopropyl-1,2,4-oxadiazole] | 64% | 814 nM | 41 ± 4% | 10 ± 2% | 5% | 94% |  | 33% | 63 ± 11% | 145 nM | some cytotoxicity | 64% | 2500 nM | 5% | 351 nM | 94% | 33% |
